In brackets after ≈: the same amount, converted by molar mass. Counter-ions that a name gives are not always drawn.
How the values were obtained:
[1] = pKa (66% DMF); format: physicochemical
[2] = test system: 6C3HED lymphosarcoma; assay: activity against transplanted tumor 6C3HED lymphosarcoma in mice; format: in vivo; settings: intravenous, day one
Experimental: Certain of the above compounds have also shown activity against a transplanted tumor, 6C3HED lymphosarcoma, in mice. Information as to this activity is summarized in Table 2 in which column 1 gives the name of the compound, column 2, the dose level in mg./kg. and column 3 the percent tumor inhabitation. All compounds were administered on day one by the intravenous route.

[3] = test system: human leukemic cells (CCRF-CEM cell line); assay: C.C.R.F.-C.E.M. Cytotoxicity Assay, growth inhibition of human leukemic cells; format: cell-based; settings: read-out: IC50 (concentration giving 50% growth inhibition)
From the text: In the Table, column 1 gives the name of the compound and column 2, the IC50 (concentration giving 50% growth inhibition) in mcg/ml.

[4] = test system: growing tumor cells; assay: metaphase arrest, block of growing tumor cells in mitosis; format: cell-based; settings: standard procedures; read-out: concentration at which compound blocked growing tumor cells in mitosis (metaphase arrest)
Experimental: The compounds of this invention in which Z is OH, NH2, NHNH2, or O--C1-3 alkyl have utility as anti-tumor compounds acti transplanted tumors in mice, as mitotic inhibitors and as cytotoxic agents. As evidence of such utility, the ability of N^2 -succinoyl 4-desacetyl VLB 3-carboxhydrazide methyl ester sulfate to cause metaphase arrest was measured by standard procedures.

[5] = test system: vincristine-resistant leukemias; settings: marketed oncolytic agent; cited from earlier work

Question: For `CC[C@]1(O)C[C@@H]2CN(CCc3c([nH]c4ccccc34)[C@@](C(=O)OC)(c3cc4c(cc3OC)N(C)[C@H]3[C@@](O)(C(=O)NNC(=O)CCC(=O)O)[C@H](O)[C@]5(CC)C=CCN6CC[C@]43[C@@H]65)C2)C1` [Example 1, N^2 -Succinoyl-4-desacetyl VLB 3-carboxhydrazide], which pKa [1] is on record?
Answer: 5.1

Question: With `CC[C@]1(O)C[C@@H]2CN(CCc3c([nH]c4ccccc34)[C@@](C(=O)OC)(c3cc4c(cc3OC)N(C)[C@H]3[C@@](O)(C(=O)NNC(=O)CCCC(=O)O)[C@H](O)[C@]5(CC)C=CCN6CC[C@]43[C@@H]65)C2)C1` [Example 8, N^2 -Glutaroyl 4-desacetyl VLB 3-carboxhydrazide] as the compound, how does the pKa [1] read?
Answer: 4.8

Question: Which “% Tumor Inhibition” value ([2]; 0.625 mg/kg) does the source give for `CC[C@]1(O)C[C@@H]2CN(CCc3c([nH]c4ccccc34)[C@@](C(=O)OC)(c3cc4c(cc3OC)N(C)[C@H]3[C@@](O)(C(=O)NNC(=O)CCC(=O)O)[C@H](O)[C@]5(CC)C=CCN6CC[C@]43[C@@H]65)C2)C1` [N^2 --Succinoyl 4-desacetyl VLB 3-carboxhydrazide sulfate] here?
Answer: 13%

Question: What about the “% Tumor Inhibition” value ([2]; 1.25 mg/kg) of the same compound?
Answer: 5%

Question: What about the “% Tumor Inhibition” value ([2]; 2.5 mg/kg) of the same compound?
Answer: 5%

Question: And the “% Tumor Inhibition” value ([2]; 5 mg/kg)?
Answer: 33%

Question: And the “% Tumor Inhibition” value ([2]; 10 mg/kg)?
Answer: 77%

Question: What about the “% Tumor Inhibition” value ([2]; 20 mg/kg) of the same compound?
Answer: 100%

Question: And the “% Tumor Inhibition” value ([2]; 40 mg/kg)?
Answer: 100%

Question: Which IC50 [3] does the source give for `CC[C@]1(O)C[C@@H]2CN(CCc3c([nH]c4ccccc34)[C@@](C(=O)OC)(c3cc4c(cc3OC)N(C)[C@H]3[C@@](O)(C(=O)NNC(=O)CCCCC(=O)OC)[C@H](O)[C@]5(CC)C=CCN6CC[C@]43[C@@H]65)C2)C1` [N^2-adipoyl-4-desacetyl VLB 3-carboxyhydrazide methylester] here?
Answer: 0.4 µg/mL (≈ 0.439 µM)

Question: Which IC50 [3] does the source give for `CC[C@]1(O)C[C@@H]2CN(CCc3c([nH]c4ccccc34)[C@@](C(=O)OC)(c3cc4c(cc3OC)N(C)[C@H]3[C@@](O)(C(=O)NNC(=O)CCCC(=O)O)[C@H](O)[C@]5(CC)C=CCN6CC[C@]43[C@@H]65)C2)C1` [N^2-glutaroyl 4-desacetyl VLB 3-carboxhydrazide sulfate] here?
Answer: 0.1 µg/mL

Question: For `CC[C@]1(O)C[C@@H]2CN(CCc3c([nH]c4ccccc34)[C@@](C(=O)OC)(c3cc4c(cc3OC)N(C)[C@H]3[C@@](O)(C(=O)NNC(=O)CCC(=O)OC)[C@H](O)[C@]5(CC)C=CCN6CC[C@]43[C@@H]65)C2)C1` [N^2-succinoyl 4-desacetyl VLB 3-carboxhydrazide methyl ester], which minimal effective concentration [4] is on record?
Answer: 0.2 µg/mL

Question: What about the “% Tumor Inhibition” value ([2]; 1 mg/kg) of the same compound?
Answer: 100%

Question: And the “% Tumor Inhibition (toxic dose)” value ([2]; 2 mg/kg)?
Answer: Toxic

Question: And the “% Tumor Inhibition (toxic dose)” value ([2]; 4 mg/kg)?
Answer: Toxic

Question: And the “% Tumor Inhibition” value ([2]; .5 mg/kg)?
Answer: 100%

Question: For `CC[C@]1(O)C[C@@H]2CN(CCc3c([nH]c4ccccc34)[C@@](C(=O)OC)(c3cc4c(cc3OC)N(C)[C@H]3[C@@](O)(C(N)=O)[C@H](O)[C@]5(CC)C=CCN6CC[C@]43[C@@H]65)C2)C1` [vindesine, 4-desacetyl VLB 3-carboxamide], which “effectiveness in treating leukemias and neoplasms” value [5] is on record?
Answer: effective in treating some vincristine-resistant leukemias in addition to many common neoplasms including germ-cell tumors

Reference: US4675400A, “Bifunctional derivatives of 4-desacetyl indole-dihydroindole alkaloids” (Eli Lilly and Company, priority 1985, dated 1987)
